Measured values published in US20230085307A1, “PYRIDAZINONE COMPOUND AND HERBICIDE” (NISSAN CHEMICAL CORPORATION, priority 2019, published 2023).

Legend:
wild oat = assay: Test Example 5: herbicidal effect by foliage application, plastic box (Table 20, symbol I); format: in vivo, wild oat (Avena fatua); settings: foliage application, evaluated three weeks after application; for herbicidal effect on I: wild oat (criteria 0-5): 320 g/ha; for I: wild oat, herbicidal effect (criteria 0-5): AAH 320 g/ha
Summary of the method: (§1)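 Post-emergence foliar test in sterilized diluvial soil. Compound applied as water-diluted emulsion at a predetermined rate to 14-day-old plants; evaluation at three weeks.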

barnyard grass [1] = assay: Test Example 3: herbicidal effect by foliage application, Wagner pot (Table 18, symbol H); format: in vivo, barnyard grass (Echinochloa crus-galli); settings: amount of applied herbicide 320 g/ha
Summary of the method: (§2)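 Plants were sown in alluvial soil held under 0.1–0.5 cm standing water and grown 14 days in a greenhouse at 25–30 °C. An emulsifiable formulation, water-diluted to the set dose, was then sprayed onto the foliage, and effects were scored three weeks later using previously defined criteria.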

barnyard grass [2] = assay: Test Example 5: herbicidal effect by foliage application, plastic box (Table 20, symbol H); format: in vivo, barnyard grass (Echinochloa crus-galli); settings: foliage application, evaluated three weeks after application; for herbicidal effect on H: barnyard grass (criteria 0-5): 320 g/ha; for H: barnyard grass, herbicidal effect (criteria 0-5): AAH 320 g/ha
Summary of the method: as §1

southern crabgrass = assay: Test Example 5: herbicidal effect by foliage application, plastic box (Table 20, symbol F); format: in vivo, southern crabgrass (Digitaria ciliaris); settings: foliage application, evaluated three weeks after application; for herbicidal effect on F: southern crabgrass (criteria 0-5): 320 g/ha; for F: southern crabgrass, herbicidal effect (criteria 0-5): AAH 320 g/ha
Summary of the method: as §1

chickweed = assay: Test Example 5: herbicidal effect by foliage application, plastic box (Table 20, symbol P); format: in vivo, common chickweed (Stellaria media); settings: foliage application, evaluated three weeks after application; for herbicidal effect on P: chickweed (criteria 0-5): 320 g/ha; for P: chickweed, herbicidal effect (criteria 0-5): AAH 320 g/ha
Summary of the method: as §1

redroot pigweed = assay: Test Example 5: herbicidal effect by foliage application, plastic box (Table 20, symbol N); format: in vivo, redroot pigweed (Amaranthus retroflexus); settings: foliage application, evaluated three weeks after application; for herbicidal effect on N: redroot pigweed (criteria 0-5): 320 g/ha; for N: redroot pigweed, herbicidal effect (criteria 0-5): AAH 320 g/ha
Summary of the method: as §1

windgrass = assay: Test Example 5: herbicidal effect by foliage application, plastic box (Table 20, symbol L); format: in vivo, windgrass (Apera spica-venti); settings: foliage application, evaluated three weeks after application; for herbicidal effect on L: windgrass (criteria 0-5): 320 g/ha; for L: windgrass, herbicidal effect (criteria 0-5): AAH 320 g/ha
Summary of the method: as §1

rice flat sedge = assay: Test Example 3: herbicidal effect by foliage application, Wagner pot (Table 18, symbol E); format: in vivo, rice flat sedge (Cyperus iria); settings: amount of applied herbicide 320 g/ha
Summary of the method: as §2

green foxtail = assay: Test Example 5: herbicidal effect by foliage application, plastic box (Table 20, symbol G); format: in vivo, green foxtail (Setaria viridis); settings: foliage application, evaluated three weeks after application; for herbicidal effect on G: green foxtail (criteria 0-5): 320 g/ha; for G: green foxtail, herbicidal effect (criteria 0-5): AAH 320 g/ha
Summary of the method: as §1

blackgrass = assay: Test Example 5: herbicidal effect by foliage application, plastic box (Table 20, symbol J); format: in vivo, blackgrass (Alopecurus myosuroides); settings: foliage application, evaluated three weeks after application; for herbicidal effect on J: blackgrass (criteria 0-5): 320 g/ha; for J: blackgrass, herbicidal effect (criteria 0-5): AAH 320 g/ha
Summary of the method: as §1

persian speedwell = assay: Test Example 5: herbicidal effect by foliage application, plastic box (Table 20, symbol R); format: in vivo, Persian speedwell (Veronica persica); settings: foliage application, evaluated three weeks after application; for herbicidal effect on R: persian speedwell (criteria 0-5): 320 g/ha; for R: persian speedwell, herbicidal effect (criteria 0-5): AAH 320 g/ha
Summary of the method: as §1

lambsquarters = assay: Test Example 5: herbicidal effect by foliage application, plastic box (Table 20, symbol O); format: in vivo, lambsquarters (Chenopodium album); settings: foliage application, evaluated three weeks after application; for herbicidal effect on O: lambsquarters (criteria 0-5): 320 g/ha; for O: lambsquarters, herbicidal effect (criteria 0-5): AAH 320 g/ha
Summary of the method: as §1

Italian ryegrass = assay: Test Example 5: herbicidal effect by foliage application, plastic box (Table 20, symbol K); format: in vivo, Italian ryegrass (Lolium multiflorum); settings: foliage application, evaluated three weeks after application; for herbicidal effect on K: Italian ryegrass (criteria 0-5): 320 g/ha; for K: Italian ryegrass, herbicidal effect (criteria 0-5): AAH 320 g/ha
Summary of the method: as §1

Chinese sprangletop = assay: Test Example 3: herbicidal effect by foliage application, Wagner pot (Table 18, symbol D); format: in vivo, chinese sprangletop (Leptochloa chinensis); settings: amount of applied herbicide 320 g/ha
Summary of the method: as §2

velvetleaf = assay: Test Example 5: herbicidal effect by foliage application, plastic box (Table 20, symbol M); format: in vivo, velvetleaf (Abutilon theophrasti); settings: foliage application, evaluated three weeks after application; for herbicidal effect on M: velvetleaf (criteria 0-5): 320 g/ha; for M: velvetleaf, herbicidal effect (criteria 0-5): AAH 320 g/ha
Summary of the method: as §1

SMILES	herbicidal effect on I: wild oat (criteria 0-5) (wild oat)	herbicidal effect on H: barnyard grass (barnyard grass [1])	herbicidal effect on H: barnyard grass (criteria 0-5) (barnyard grass [2])	herbicidal effect on F: southern crabgrass (criteria 0-5) (southern crabgrass)	herbicidal effect on P: chickweed (criteria 0-5) (chickweed)	herbicidal effect on N: redroot pigweed (criteria 0-5) (redroot pigweed)	herbicidal effect on L: windgrass (criteria 0-5) (windgrass)	herbicidal effect on E: rice flat sedge (rice flat sedge)	herbicidal effect on G: green foxtail (criteria 0-5) (green foxtail)	herbicidal effect on J: blackgrass (criteria 0-5) (blackgrass)	herbicidal effect on R: persian speedwell (criteria 0-5) (persian speedwell)	herbicidal effect on O: lambsquarters (criteria 0-5) (lambsquarters)	herbicidal effect on K: Italian ryegrass (criteria 0-5) (Italian ryegrass)	herbicidal effect on D: Chinese sprangletop (Chinese sprangletop)	herbicidal effect on M: velvetleaf (criteria 0-5) (velvetleaf)	I: wild oat, herbicidal effect (criteria 0-5) (wild oat)	H: barnyard grass, herbicidal effect (criteria 0-5) (barnyard grass [2])	F: southern crabgrass, herbicidal effect (criteria 0-5) (southern crabgrass)	P: chickweed, herbicidal effect (criteria 0-5) (chickweed)	N: redroot pigweed, herbicidal effect (criteria 0-5) (redroot pigweed)	also measured
COc1cc(F)ccc1-c1sc2ccc(N(C)C(C)=O)cc2c1-c1c(O)c(C)nn(C)c1=O [2-177]	0 (Herbicidal rate of 5% or less (almost no effect))	3 (Herbicidal rate of 40% or more and less than 70%)	0 (Herbicidal rate of 5% or less (almost no effect))	0 (Herbicidal rate of 5% or less (almost no effect))	5 (Herbicidal rate of 90% or more (almost completely withered))	4 (Herbicidal rate of 70% or more and less than 90%)	3 (Herbicidal rate of 40% or more and less than 70%)	3 (Herbicidal rate of 40% or more and less than 70%)	3 (Herbicidal rate of 40% or more and less than 70%)	3 (Herbicidal rate of 40% or more and less than 70%)	4 (Herbicidal rate of 70% or more and less than 90%)	3 (Herbicidal rate of 40% or more and less than 70%)	0 (Herbicidal rate of 5% or less (almost no effect))	4 (Herbicidal rate of 70% or more and less than 90%)	3 (Herbicidal rate of 40% or more and less than 70%)	–	–	–	–	–	–
Cc1nn(C)c(=O)c(-c2c(-c3cccc(SC(C)C)c3)sc3ccc(F)cc23)c1O [2-250]	2 (Herbicidal rate of 20% or more and less than 40%)	3 (Herbicidal rate of 40% or more and less than 70%)	0 (Herbicidal rate of 5% or less (almost no effect))	0 (Herbicidal rate of 5% or less (almost no effect))	5 (Herbicidal rate of 90% or more (almost completely withered))	5 (Herbicidal rate of 90% or more (almost completely withered))	3 (Herbicidal rate of 40% or more and less than 70%)	3 (Herbicidal rate of 40% or more and less than 70%)	0 (Herbicidal rate of 5% or less (almost no effect))	3 (Herbicidal rate of 40% or more and less than 70%)	5 (Herbicidal rate of 90% or more (almost completely withered))	3 (Herbicidal rate of 40% or more and less than 70%)	1 (Herbicidal rate of 5% or more and less than 20%)	2 (Herbicidal rate of 20% or more and less than 40%)	2 (Herbicidal rate of 20% or more and less than 40%)	–	–	–	–	–	–
Cc1nn(C)c(=O)c(-c2c(-c3cccc(SCC(F)(F)F)c3)sc3ccc(F)cc23)c1O [2-262]	–	3 (Herbicidal rate of 40% or more and less than 70%)	–	–	–	–	–	2 (Herbicidal rate of 20% or more and less than 40%)	–	–	–	–	–	0 (Herbicidal rate of 5% or less (almost no effect))	–	3 (Herbicidal rate of 40% or more and less than 70%)	0 (Herbicidal rate of 5% or less (almost no effect))	0 (Herbicidal rate of 5% or less (almost no effect))	5 (Herbicidal rate of 90% or more (almost completely withered))	5 (Herbicidal rate of 90% or more (almost completely withered))	L: windgrass, herbicidal effect (criteria 0-5) (windgrass): 4 (Herbicidal rate of 70% or more and less than 90%); G: green foxtail, herbicidal effect (criteria 0-5) (green foxtail): 0 (Herbicidal rate of 5% or less (almost no effect)); J: blackgrass, herbicidal effect (criteria 0-5) (blackgrass): 3 (Herbicidal rate of 40% or more and less than 70%); R: persian speedwell, herbicidal effect (criteria 0-5) (persian speedwell): 5 (Herbicidal rate of 90% or more (almost completely withered)); O: lambsquarters, herbicidal effect (criteria 0-5) (lambsquarters): 3 (Herbicidal rate of 40% or more and less than 70%); K: Italian ryegrass, herbicidal effect (criteria 0-5) (Italian ryegrass): 3 (Herbicidal rate of 40% or more and less than 70%); M: velvetleaf, herbicidal effect (criteria 0-5) (velvetleaf): 4 (Herbicidal rate of 70% or more and less than 90%)
Cc1nn(C)c(=O)c(-c2c(-c3ccc(OC(F)F)cc3)sc3ccc(F)cc23)c1OC(=O)C(C)(C)c1ccccc1 [2-282]	–	3 (Herbicidal rate of 40% or more and less than 70%)	–	–	–	–	–	0 (Herbicidal rate of 5% or less (almost no effect))	–	–	–	–	–	0 (Herbicidal rate of 5% or less (almost no effect))	–	0 (Herbicidal rate of 5% or less (almost no effect))	1 (Herbicidal rate of 5% or more and less than 20%)	0 (Herbicidal rate of 5% or less (almost no effect))	5 (Herbicidal rate of 90% or more (almost completely withered))	5 (Herbicidal rate of 90% or more (almost completely withered))	L: windgrass, herbicidal effect (criteria 0-5) (windgrass): 0 (Herbicidal rate of 5% or less (almost no effect)); G: green foxtail, herbicidal effect (criteria 0-5) (green foxtail): 4 (Herbicidal rate of 70% or more and less than 90%); J: blackgrass, herbicidal effect (criteria 0-5) (blackgrass): 0 (Herbicidal rate of 5% or less (almost no effect)); R: persian speedwell, herbicidal effect (criteria 0-5) (persian speedwell): 5 (Herbicidal rate of 90% or more (almost completely withered)); O: lambsquarters, herbicidal effect (criteria 0-5) (lambsquarters): 5 (Herbicidal rate of 90% or more (almost completely withered)); K: Italian ryegrass, herbicidal effect (criteria 0-5) (Italian ryegrass): 0 (Herbicidal rate of 5% or less (almost no effect)); M: velvetleaf, herbicidal effect (criteria 0-5) (velvetleaf): 4 (Herbicidal rate of 70% or more and less than 90%)
